Experimental findings from patent US9566312B2, “Cyclic peptides and use as medicines” (priority 2012, dated 2017) are described below.

Where two headings read alike, the source gives them in different places. Starred links: 1 amine or outer side, 2 acyl side, 3 side chain; linkers in the order of their positions; H or OH if unused. Non-standard residues stand in square brackets, D forms with d. Residues, ends and D or L forms follow the SMILES beside them. X73 = CO[C@H]1CCN(CCOC[C@@H](C)[C@@H](C(=O)[*:2])N(C)[*:1])C1; X51 = C[C@H](CN1CCC2(COC2)C1)[C@@H](C(=O)[*:2])N(C)[*:1]; X68 = C[C@H](CCN1CCC(C#N)CC1)[C@@H](C(=O)[*:2])N(C)[*:1]; X32 = C[C@H](CN1CC2(COC2)C1)[C@@H](C(=O)[*:2])N(C)[*:1]; X53 = C[C@H](CN(C)Cc1cccnc1)[C@@H](C(=O)[*:2])N(C)[*:1]; X30 = C[C@H](CN1CCCOCC1)[C@@H](C(=O)[*:2])N(C)[*:1]; MeBmt = C/C=C/C[C@@H](C)[C@@H](O)[C@H](NC)C(=O)O; NMeL = CN[C@@H](CC(C)C)C(=O)O; NMeV = CN[C@H](C(=O)O)C(C)C; dNMeA = CN[C@H](C)C(=O)O; Abu = CC[C@H](N)C(=O)O

Test [1] has as its target organic anion transporting polypeptide 1B1 (OATP1B1) (Homo sapiens (Human), UniProt Q9Y6L6). Kind of test: OATP assay in CHO-OATP1B1 cells.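 Also: inhibition of probe substrate uptake into the cells, ten minutes exposure, accumulated substrate read by fluorescence once cells were lysed.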
Protocol: In order to determine whether the compounds of the present invention interact with hepatic transporters, experiments were carried out that compared the concentration-dependent inhibition toward the organic anion transporting polypeptide 1B1 (OATP1B1) and the multidrug resistance associated protein 2 (MRP2).
The cells were cultured in DMEM/F12 +10% FBS+2 mM Ala-Gln+1% Pen-Strep for a period of two days, and the media was changed one day post-seeding. Prior to the assay, media was aspirated and were washed −3× with HBSS+10 mM HEPES and the solution was equilibrated for 15 min in HBSS+10 mM HEPES. Solutions containing the inhibitor were prepared in HBSS+10 mM HEPES (up to 1% DMSO). […] After 10 min, the substrate or substrate/inhibitor solution was aspirated and the cells were washed 3× with HBSS+10 mM HEPES. The amount of the transported probe substrate was determined by fluorescent photometry after cell lysis, and the IC50 was derived from the concentration-response curve.
Test [2] addresses CypF (Homo sapiens (Human), UniProt P30405). The test can be described thus: Inhibitor binding to cyclophilin proteins by SPR, CypF. The following applies: 1:1 binding model. The method, boiled down:
(§1)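 Mono-biotinylated avi-tagged cyclophilins captured on a Biotin CAPture chip. Single-cycle kinetics at 50 μL/min, 1 min contacts, 10 min final dissociation, in 10 mM HEPES pH 7.4, 150 mM NaCl, 0.05% P20, 3% DMSO. kon, koff and KD from a 1:1 binding model.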

The target in test [3] is cyclophilin B (CypB) (Homo sapiens (Human), UniProt P23284). The test can be described thus: Inhibitor binding to cyclophilin proteins by SPR, CypB. As to conditions: 1:1 binding model. Set-up: unit not given here. The method, boiled down:
as §1

Test [4] has as its system genotype 1b subgenomic HCV replicon in Huh7.5 cells. It is filed as cell-based, hepatitis C virus. The following applies: read-out: RPLN-1b IC50. The procedure, abridged: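 Huh7.5 cells carrying genotype 1b subgenomic HCV replicon with renilla luciferase-neomycin reporter, in phenol red-free DMEM without G418. Luciferase measured after 72 h compound exposure relative to DMSO-treated cells; cytotoxicity (CC50) by Cell Titer-Glo.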

Test [5] deals with cyclophilin A (CypA) (Homo sapiens (Human), UniProt P62937). Kind of test: Inhibitor binding to cyclophilin proteins by SPR, CypA.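 Also: Single-cycle kinetics on a Biacore T200, compound injected at several concentrations for 1 min each at 50 µL/min, then 10 min dissociation, in HEPES pH 7.4 buffer with 3% DMSO.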 More on the design: unit not given here. The following applies: 1:1 binding model.
The test system of test [6] is peripheral blood mononuclear cells (PBMC). Kind of test: Anti-proliferative or immunosuppressive activity, BrdU incorporation in PHA-stimulated PBMC. It is filed as cell-based. The following applies: PHA 3 μg/ml, 60 hour compound treatment; read-out: EMV PBMC IC50. The procedure, abridged:
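Fresh PBMCs from two donors, 30,000 per well in X-VIVO 15 medium, stimulated with 3 μg/ml PHA to drive T-cell proliferation. Proliferation measured as BrdU incorporation into DNA by BrdU ELISA.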

Where [7] appears, read: genotype 1b replicon, 72 h incubation.

Sequence of cyclophilin A (CypA) (P62937 whole entry): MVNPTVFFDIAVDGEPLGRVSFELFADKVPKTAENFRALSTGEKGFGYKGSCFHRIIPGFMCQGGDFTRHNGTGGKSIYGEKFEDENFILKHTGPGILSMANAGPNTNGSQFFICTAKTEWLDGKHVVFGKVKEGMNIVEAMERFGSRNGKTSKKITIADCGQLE
Sequence of organic anion transporting polypeptide 1B1 (OATP1B1) (Q9Y6L6 whole entry): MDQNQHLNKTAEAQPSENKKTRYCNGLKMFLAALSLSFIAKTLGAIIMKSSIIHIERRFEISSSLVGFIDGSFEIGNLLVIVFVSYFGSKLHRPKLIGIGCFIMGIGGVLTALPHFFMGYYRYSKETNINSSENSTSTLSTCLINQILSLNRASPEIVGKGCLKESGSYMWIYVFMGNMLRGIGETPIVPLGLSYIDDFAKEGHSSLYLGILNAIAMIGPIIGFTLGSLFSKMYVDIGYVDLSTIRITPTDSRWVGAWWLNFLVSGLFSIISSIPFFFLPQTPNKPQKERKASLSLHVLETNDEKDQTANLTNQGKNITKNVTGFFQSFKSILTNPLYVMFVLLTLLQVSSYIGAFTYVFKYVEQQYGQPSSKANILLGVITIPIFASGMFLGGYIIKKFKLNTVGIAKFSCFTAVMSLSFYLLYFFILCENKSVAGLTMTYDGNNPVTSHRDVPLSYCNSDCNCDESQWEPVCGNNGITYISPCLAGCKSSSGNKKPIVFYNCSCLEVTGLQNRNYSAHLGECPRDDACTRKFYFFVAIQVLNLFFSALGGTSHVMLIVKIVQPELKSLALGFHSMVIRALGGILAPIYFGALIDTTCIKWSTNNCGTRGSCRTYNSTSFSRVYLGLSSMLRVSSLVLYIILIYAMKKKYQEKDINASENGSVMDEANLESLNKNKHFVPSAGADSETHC
Sequence of CypF (P30405 30-207): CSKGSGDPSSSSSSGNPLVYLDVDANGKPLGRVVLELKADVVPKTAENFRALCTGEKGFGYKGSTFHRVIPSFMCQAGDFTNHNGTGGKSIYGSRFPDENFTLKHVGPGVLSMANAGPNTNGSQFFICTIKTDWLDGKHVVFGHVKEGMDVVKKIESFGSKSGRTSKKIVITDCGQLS
Sequence of cyclophilin B (CypB) (P23284 34-216): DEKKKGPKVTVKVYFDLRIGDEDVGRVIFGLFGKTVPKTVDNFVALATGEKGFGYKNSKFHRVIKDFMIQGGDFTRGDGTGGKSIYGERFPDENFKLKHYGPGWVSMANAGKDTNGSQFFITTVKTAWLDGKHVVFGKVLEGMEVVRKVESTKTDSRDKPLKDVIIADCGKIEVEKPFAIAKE

On to `C/C=C/C[C@@H](C)[C@@H](O)[C@H]1C(=O)N[C@@H](CC)C(=O)N(C)[C@H](C(C)C)C(=O)N(C)C([C@H](C)COC)C(=O)N[C@@H](C(C)C)C(=O)N(C)[C@@H](CC(C)C)C(=O)N[C@@H](C)C(=O)N[C@H](C)C(=O)N(C)[C@@H](CC(C)C)C(=O)N(C)[C@@H](CC(C)C)C(=O)N(C)[C@@H](C(C)C)C(=O)N1C` (stereo in doubt) [Compound 3.3, 3-[(R)-3-methyl-2-(methylamino)butanoyl]-4-[(2S,3S)-4-methoxy-3-methyl-2-(methylamino)butanoyl]-cyclosporin], for which the IC50 in test [1] amounted to 2 µM; in test [4], 0.1 µM; in test [6], 13.2 µM. The molecule further registered a CypF Kd in test [2] of 0.0082 µM. Also, the “CypB Kd” value in test [3] is listed as 7.4. Moreover, the “CypA Kd” value in test [5] is 13.7.
Regarding `C/C=C/C[C@@H](C)[C@@H](O)[C@H]1C(=O)N[C@@H](CC)C(=O)N(C)[C@H](C)C(=O)N(C)[C@@H]([C@H](C)CN2CCCOCC2)C(=O)N[C@@H](C(C)C)C(=O)N(C)[C@@H](CC(C)C)C(=O)N[C@@H](C)C(=O)N[C@H](C)C(=O)N(C)[C@@H](CC(C)C)C(=O)N(C)[C@@H](CC(C)C)C(=O)N(C)[C@@H](C(C)C)C(=O)N1C` [Compound 2.5.21, 3-[D-Ala]-4-[(2S,3R)-3-methyl-2-(methylamino)-4-(1,4-oxazepan-4-yl)butanoyl]-cyclosporin] (cyclo(A[dA][NMeL][NMeL][NMeV][MeBmt][Abu][dNMeA][X30]V[NMeL])), the IC50 in test [1] amounted to 1.7 µM; in test [4] (setting [7]), 0.037 µM; in test [6], 4.5 µM. This molecule also displayed a CypF Kd in test [2] of 0.0008 µM. Further, the “CypB Kd” value in test [3] was 0.9. The “CypA Kd” value in test [5] is on record as 1.9.
As to `C/C=C/C[C@@H](C)[C@@H](O)[C@H]1C(=O)N[C@@H](CC)C(=O)N(C)[C@H](C)C(=O)N(C)[C@@H]([C@H](C)CN2CCC3(COC3)C2)C(=O)N[C@@H](C(C)C)C(=O)N(C)[C@@H](CC(C)C)C(=O)N[C@@H](C)C(=O)N[C@H](C)C(=O)N(C)[C@@H](CC(C)C)C(=O)N(C)[C@@H](CC(C)C)C(=O)N(C)[C@@H](C(C)C)C(=O)N1C` [Compound 2.5.33, 3-[D-Ala]-4-[(2S,3R)-3-methyl-2-(methylamino)-4-(2-oxa-6-azaspiro[3.4]octan-6-yl)butanoyl]-cyclosporin] (cyclo(A[dA][NMeL][NMeL][NMeV][MeBmt][Abu][dNMeA][X51]V[NMeL])), the IC50 turned out to be 2 µM in test [1], 0.046 µM in test [4] (setting [7]) and 10.3 µM in test [6]. For the same molecule, the CypF Kd in test [2] was determined as 0.0008 µM. Also, the “CypB Kd” value in test [3] came to 0.8. In addition, the “CypA Kd” value in test [5] was determined as 1.1.
`C/C=C/C[C@@H](C)[C@@H](O)[C@H]1C(=O)N[C@@H](CC)C(=O)N(C)[C@H](C)C(=O)N(C)[C@@H]([C@H](C)COCCN2CC[C@H](OC)C2)C(=O)N[C@@H](C(C)C)C(=O)N(C)[C@@H](CC(C)C)C(=O)N[C@@H](C)C(=O)N[C@H](C)C(=O)N(C)[C@@H](CC(C)C)C(=O)N(C)[C@@H](CC(C)C)C(=O)N(C)[C@@H](C(C)C)C(=O)N1C` [Compound 2.8.7, 3-[D-Ala]-4-[(2S,3S)-4-(2-((S)-3-methoxypyrrolidin-1-yl)ethoxy)-3-methyl-2-(methylamino)butanoyl]-cyclosporin] (cyclo(A[dA][NMeL][NMeL][NMeV][MeBmt][Abu][dNMeA][X73]V[NMeL])): the figures for the IC50 in test [1], in test [4] (setting [7]) and in test [6] were 5 µM, 0.045 µM and 6.8 µM, respectively. In test [2], the CypF Kd is 0.0003 µM. Also, the “CypB Kd” value in test [3] is given as 0.4. The “CypA Kd” value in test [5] was found to be 0.6.
In the case of `C/C=C/C[C@@H](C)[C@@H](O)[C@H]1C(=O)N[C@@H](CC)C(=O)N(C)[C@H](C)C(=O)N(C)[C@@H]([C@H](C)CCCN2CCN(CC)CC2)C(=O)N[C@@H](C(C)C)C(=O)N(C)[C@@H](CC(C)C)C(=O)N[C@@H](C)C(=O)N[C@H](C)C(=O)N(C)[C@@H](CC(C)C)C(=O)N(C)[C@@H](CC(C)C)C(=O)N(C)[C@@H](C(C)C)C(=O)N1C` (stereo in doubt) [Compound 2.19.4, 3-[D-Ala]-4-[(2S,3R)-6-(4-ethylpiperazin-1-yl)-3-methyl-2-(methylamino)hexanoyl]-cyclosporin], the results for the IC50 in test [1], in test [4] (setting [7]) and in test [6] were 2.6 µM, 0.06 µM and 8.8 µM, respectively. The molecule further yielded a CypF Kd in test [2] of 0.0004 µM. Further, in test [3], the “CypB Kd” value was determined as 0.4. The “CypA Kd” value in test [5] was 0.6.
On to `C/C=C/C[C@@H](C)[C@@H](O)[C@H]1C(=O)N[C@@H](CC)C(=O)N(C)[C@H](C)C(=O)N(C)[C@@H]([C@H](C)CN(C)Cc2cccnc2)C(=O)N[C@@H](C(C)C)C(=O)N(C)[C@@H](CC(C)C)C(=O)N[C@@H](C)C(=O)N[C@H](C)C(=O)N(C)[C@@H](CC(C)C)C(=O)N(C)[C@@H](CC(C)C)C(=O)N(C)[C@@H](C(C)C)C(=O)N1C` [Compound 2.5.25, 3-[D-Ala]-4-[(2S,3R)-3-methyl-4-(methyl(pyridin-3-ylmethyl)amino)-2-(methylamino)butanoyl]-cyclosporin] (cyclo(A[dA][NMeL][NMeL][NMeV][MeBmt][Abu][dNMeA][X53]V[NMeL])), for which the figures for the IC50 in test [1], in test [4] (setting [7]) and in test [6] were 1 µM, 0.022 µM and 5.6 µM, respectively. The CypF Kd in test [2] is 0.001 µM. Also, the “CypB Kd” value in test [3] was found to be 1.0. The “CypA Kd” value in test [5] is reported as 1.8.
On to `C/C=C/C[C@@H](C)[C@@H](O)[C@H]1C(=O)N[C@@H](CC)C(=O)N(C)[C@H](C)C(=O)N(C)[C@@H]([C@H](C)CN2CC3(COC3)C2)C(=O)N[C@@H](C(C)C)C(=O)N(C)[C@@H](CC(C)C)C(=O)N[C@@H](C)C(=O)N[C@H](C)C(=O)N(C)[C@@H](CC(C)C)C(=O)N(C)[C@@H](CC(C)C)C(=O)N(C)[C@@H](C(C)C)C(=O)N1C` [Compound 2.5.16, 3-[D-Ala]-4-[(2S,3R)-3-methyl-2-(methylamino)-4-(2-oxa-6-azaspiro[3.3]heptan-6-yl)butanoyl]-cyclosporin] (cyclo(A[dA][NMeL][NMeL][NMeV][MeBmt][Abu][dNMeA][X32]V[NMeL])), for which the concentration for half-maximal inhibition (IC50) was 3.4 µM in test [1], 0.01 µM in test [4] (setting [7]) and 18 µM in test [6]. The CypF Kd in test [2] came to 0.0007 µM. In addition, the “CypB Kd” value in test [3] is 0.7. Also, in test [5], the “CypA Kd” value is 1.4.
On to `C/C=C/C[C@@H](C)[C@@H](O)[C@H]1C(=O)N[C@@H](CC)C(=O)N(C)[C@H](C)C(=O)N(C)[C@@H]([C@H](C)CCN2CCC(C#N)CC2)C(=O)N[C@@H](C(C)C)C(=O)N(C)[C@@H](CC(C)C)C(=O)N[C@@H](C)C(=O)N[C@H](C)C(=O)N(C)[C@@H](CC(C)C)C(=O)N(C)[C@@H](CC(C)C)C(=O)N(C)[C@@H](C(C)C)C(=O)N1C` [Compound 2.18.2, 3-[D-Ala]-4-[(2S,3R)-5-(4-cyanopiperidin-1-yl)-3-methyl-2-(methylamino)pentanoyl]-cyclosporin] (cyclo(A[dA][NMeL][NMeL][NMeV][MeBmt][Abu][dNMeA][X68]V[NMeL])), for which the IC50 was found to be 2.4 µM in test [1], 0.058 µM in test [4] (setting [7]) and 7.3 µM in test [6]. In test [2], this molecule came in with a CypF Kd of 0.0006 µM. In test [3], the “CypB Kd” value amounted to 0.7. The “CypA Kd” value in test [5] came out at 1.1.
